Experimental findings from patent US5306721A (priority 1990, dated 1994) are described below.

Assay [1] concerns effector T lymphocyte activity (contact hypersensitivity). Description: Percutaneous test for detecting delayed contact hypersensitivity (contact dermatitis) after DNFB immunization. The format is in vivo, guinea pig. The settings on record: Cavia porcellus, Control: 100, oral 2 mg/kg daily. From the text:
1.1 Percutaneous test for detecting contact hypersensitivity
The epicutaneous application of dinitrofluorobenzene (DNFB) led to the development of a delayed hypersensitivity in guinea pigs and mice, an immune status, which is linked to the clonal reproduction of antitrinitrophenyl (TNP)-specific T lymphocytes (TDTH -ly). If, after a latency period of at least 5 days, there is a renewed application of DNFB, lymphokines are released through the reaction with the TDTH -ly of this region of the skin and thus lead to a locally limited inflammatory reaction.
Seven days after the immunization with 1% DNFB, the sides of the experimental animals were depilated and tested by the application of one drop each of the 0.5%, 0.1%, 0.05, 0.025% and 0.01% DNFB solution. […] The test results are obtained from the severity and number of the positive skin reactions, and the stimulation index (SI) is obtained from the comparison of test animals and control animals.
The test substance is orally administered. A daily dose of 2 mg/kg of body weight, as an aqueous suspension, was administered daily by a stomach tube. Duration of treatment: 1 day+1 (one day after the immunization), up to +6. The control animals received only the lactose content of the composition.
(§1) The degree of sensitization in percent and the concentration of serum antibodies expressed as antibody titer difference is compared below to the respective control group (screening values).
(§2) A contact dermatitis value of 120 or more, i.e. corresponding to an at least 20% increase compared to the control, or of less than 80 are taken as proof of a stimulatory or suppressor effect, respectively. Antibody values of >+1 or <-1 illustrate the stimulatory or suppressor effect, respectively, of the substances on the humoral response.

The subject of assay [2] is DNP-specific serum antibodies. In words: Takatsy test for DNP-specific serum antibodies (humoral immune response). The format is in vivo, guinea pig. The settings on record: difference to control group; blood taken 14 days after DNFB. Here is the method: After immunization with DNFB, dinitrophenyl (DNP)-specific humoral antibodies, which preferentially belong to the IgG1 substance class, are developed in guinea pigs. Blood was taken from the experimental animals by puncture of the heart fourteen days after the primary epicutaneous application of DNFB. The antibody (AB) concentration was determined according to the method described by G. Takatsy: A New Method for the Preparation of Serial Dilutions in a Quick and Accurate Way, (Kiserletes Orvostudomany, Hungary, Vol. 2, 1950, pp. 263-396). TNP-laden sheep erythrocytes were used as indicator cells coupled according to Rittenberg and Pratt (M. B. Rittenberg, and K. L. Pratt, Antitrinitrophenyl Plaque Assay. Primary Response of BALB/c Mice to Soluble and Particulate Immunogen, Proc. Soc. Exp. Biol. Med., Vol. 132, 1969, pp. 575-579).
as §1, §2

For assay [3], the system named is SE-specific rosette-forming cells (RFC). In words: Rosette test (SE-specific rosettes). The settings on record: oral administration. The format is in vivo, mouse (inbred CBA strain). Here is the method:
The testing of immunostimulatory effects was also conducted on the mouse (inbred CBA strain) by detection through the plaque test for detecting SE (sheep erythrocyte) -specific immunoglobulin M (IgM) and immunoglobulin G (IgG) PFC (plaque forming cells), and by the rosette test.
2.2 Rosette Test (SE-specific rosettes)
According to Burnet's Theory, lymphocytes carry immunoglobulin receptors on their surface. These receptors are directed against a particular antigen and are detectable by a reaction with the specific antigen. The determination of the number of rosette-forming cells (RFC) can serve as a measure of the strength of an incipient immune reaction and consequently also reproduce the effects of a suppression or stimulation of cell-proliferative processes.
Three days after the intravenous immunization with 2×10^5 SE in 0.2 ml physiological salt solution, the experimental animals were killed by hyperdistention, the spleen was removed and, after addition of Parker medium at pH 7.4, rubbed through Muller gauze. The work to recover the cell suspension was carried out in an ice-cooled water bath from about 0° C. to about 4° C. The determination of the cell density was carried out in a Neubauer counting chamber. Next, the cell count was adjusted to 1×10^7 nuclei-containing cell (NCC) per ml of medium, a count that was kept constant for all experimental formulations. Of this spleen cell suspension (1×10^7 NCC/ml), 0.9 ml were then mixed with 0.1 ml of a 5% washed SE suspension and incubated for 24 hours at 4° C. An NCC, which was surrounded by at least 4 erythrocytes and was identifiable, was rated as a rosette.

Setting [4] is: 24 h, day +1 to +6, read-out: Contact dermatitis, 24-hour reaction.
Where [5] appears, read: 48 h, day +1 to +6, read-out: Contact dermatitis, 48-hour reaction.

Each structure is given as a SMILES string. Like-named read-outs stand apart in the source and are kept apart here.

On to `O=c1[nH]c2ccc(F)cc2c(=O)n1CCS` [Example 14c, 6-Fluoro-3-(2-mercapto-ethyl)-quinazoline-2,4(1H,3H)-dione], for which the figures for the response vs control in vivo at 2 mg/kg in assay [1] (setting [4]) and in assay [1] (setting [5]) were 90% and 105%, respectively.
As for `COc1cc2[nH]c(=O)n(CCS)c(=O)c2cc1OC` [Example 3, 3-(2-mercapto-ethyl)-6,7-dimethoxy-quinazoline-2,4(1H,3H)-dione], the response vs control in vivo at 2 mg/kg in assay [1] (setting [4]) amounted to 100%. Besides, the “DNP-specific antibodies (antibody titer difference)” value in assay [2] was “+1.0”.
In the same order, the values of `CC(S)Cn1c(=O)[nH]c2ccccc2c1=O` (stereo not drawn) [Example 7, 3-(2-mercapto-propyl)-quinazoline-2,4(1H,3H)-dione] are 230% and “+1.8”.
On to `O=c1[nH]c2ccc(Cl)cc2c(=O)n1CCS` [Example 13, 6-chloro-3-(2-mercapto-ethyl)-quinazoline-2,4(1H,3H)-dione], for which the response vs control in vivo at 2 mg/kg was determined as 120% in assay [1] (setting [4]) and 130% in assay [1] (setting [5]).
As to `O=c1[nH]c2ccc(Br)cc2c(=O)n1CCCS` [Example 14b, 6-Bromo-3-(3-mercapto-propyl)-quinazoline-2,4(1H,3H)-dione], the response vs control in vivo at 2 mg/kg stood at 105% in assay [1] (setting [4]) and 100% in assay [1] (setting [5]). Also, the “DNP-specific antibodies (antibody titer difference)” value in assay [2] is “+2.2”.
In the same order, the values of `Cc1ccc2[nH]c(=O)n(CCS)c(=O)c2c1` [Example 14a, 6-Methyl-3-(2-mercapto-ethyl)-quinazoline-2,4(1H,3H)-dione] are 60%, 60% and -1.9.
For the compound `COc1cc2[nH]c(=O)n(CC(C)S)c(=O)c2cc1OC` (stereo not drawn) [Example 14e, 6,7-Dimethoxy-3-(2-mercapto-propyl)-quinazoline-2,4(1H,3H)-dione], the response vs control in vivo at 2 mg/kg in assay [1] (setting [4]) came to 100%. Further, in assay [3], the “production of SE-specific rosette-forming cells” value is “significant production of SE-specific rosette-forming cells”.
Consider `O=c1[nH]c2ccccc2c(=O)n1CCCS` [Example 6, 3-(3-Mercapto-propyl)-quinazoline-2,4(1H,3H)-dione], for which the response vs control in vivo at 2 mg/kg in assay [1] (setting [4]) is 70%; in assay [1] (setting [5]) it was 40%. For the same compound, the “DNP-specific antibodies (antibody titer difference)” value in assay [2] is listed as -1.5. Further, the “production of SE-specific rosette-forming cells” value in assay [3] was “significant production of SE-specific rosette-forming cells”.
Turning to `CC(S)Cn1c(=O)[nH]c2ccc(F)cc2c1=O` (stereo not drawn) [Example 14d, 6-Fluoro-3-(2-mercapto-propyl)-quinazoline-2,4(1H,3H)-dione], the response vs control in vivo at 2 mg/kg worked out at 100% in assay [1] (setting [4]) and 150% in assay [1] (setting [5]).
Take `Cc1ccc2[nH]c(=O)n(CCCS)c(=O)c2c1` [Example 12, 6-methyl-3-(3-mercapto-propyl)-quinazoline-2,4(1H,3H)-dione]: the response vs control in vivo at 2 mg/kg in assay [1] (setting [4]) was 120%; in assay [1] (setting [5]), 130%. For the same compound, the “DNP-specific antibodies (antibody titer difference)” value in assay [2] was “+0.3”.
For the compound `O=c1[nH]c2ccc(Cl)cc2c(=O)n1CCCS` [Example 8, 6-chloro-3-(3-mercapto-propyl)-quinazoline-2,4(1H,3H)-dione], the response vs control in vivo at 2 mg/kg in assay [1] (setting [4]) is 100%; in assay [1] (setting [5]), 115%.
For `O=c1[nH]c2ccc(Br)cc2c(=O)n1CCS` [Example 5, 6-bromo-3-(2-mercaptoethyl)-quinazoline-2,4(1H,3H)-dione], the response vs control in vivo at 2 mg/kg in assay [1] (setting [4]) was found to be 150%; in assay [1] (setting [5]), 120%. Moreover, in assay [2], the “DNP-specific antibodies (antibody titer difference)” value is recorded as -0.6.
